{"source": "patent US9676806B2", "about": "“Metal-based thiophene photodynamic compounds and their use” (priority 2012, dated 2017)", "system": "pUC19 plasmid DNA", "assay": "PDC-mediated pUC19 photocleavage, gel electrophoretic analysis", "key": {"[1]": {"conditions": "Air, +hv, 420-nm irradiation 1 hr, FIG. 15"}, "[2]": {"conditions": "Air, +hv, visible irradiation 1 hr, 21 W/m^2, FIG. 16"}, "[3]": {"conditions": "Ar, +hv, 420-nm irradiation 1 hr, FIG. 15"}, "[4]": {"conditions": "Ar, +hv, visible irradiation 1 hr, 21 W/m^2, FIG. 16"}}, "description": "FIG. 16: Gel electrophoretic analysis (1% agarose gel precast with 0.75 μg mL^−1 ethidium bromide, 1×TAE, 8 V cm^−1, 30 min.) of PDC-mediated pUC19 photocleavage in air-saturated and deoxygenated solution: visible irradiation of pUC19 (20 μM NP in 10 mM Tris·100 mM NaCl, pH 7.4) for 1 hr. with cool white fluorescent tubes, 21 W/m^2. Lanes 1 (−PDC, −hv), 2 (500 μM [Ru(bpy)3]^2+, −hv), and 5 (2 μM 10a, −hv) are controls. Lanes 3 (500 μM [Ru(bpy)3]^2+, +hv) and 6 (2 μM 10a, +hv) contain samples that were irradiated in air; lanes 4 and 7 are the corresponding samples irradiated in argon.\nDNA photocleavage experiments were performed according to a general plasmid DNA assay with 20 μL total sample volumes in 0.5 or 1.5 mL microfuge tubes containing transformed pUC19 plasmid (200 ng, >95% Form I) in 10 mM MOPS buffer and 100 mM NaCl, pH 7.4. DNA (1-5 μL) was delivered to the assay tubes as a solution in 10 mM Tris-Cl (pH 8.5) and diluted with MOPS (pH 7.5, final concentration 10 mM) and NaCl (final concentration 100 mM). […] Complexes were dissolved initially in acetonitrile (2 μM stock solutions), and all subsequent dilutions were made with ddH2O where final assay tubes contained <1% acetonitrile. For concentration-based assays, samples (no pre-incubation period) were irradiated in air for 30 min with 420 nm light inside a photoreactor (Luzchem LZC-4X). Where irradiation of deoxygenated samples was required, argon was bubbled through the solutions for 15 min prior to irradiation under a positive pressure of argon. All samples were quenched by the addition of gel loading buffer (4 μL), loaded onto 1% agarose gels containing ethidium bromide (0.75 μg mL^−1), and electrophoresed for 30 min at 8-12 V cm^−1 in 1×TAE (40 mM Trisacetate, 1 mM EDTA, pH 8.2). The bands were visualized with UV-transillumination (UVP transilluminator) and quantified using the Gel Doc-It Imaging system (UVP) or GNU Image Manipulation Program (GIMP)."}
{"smiles": "[Ru+2].c1ccc(-c2ccccn2)nc1.c1ccc(-c2ccccn2)nc1.c1ccc(-c2ccccn2)nc1", "note": "[[Ru(bpy)^3]^2+]", "values": [{"measurement": "Form I", "setting": "[1]", "result": 33, "unit": "%"}, {"measurement": "Form II", "setting": "[1]", "result": 67, "unit": "%"}, {"measurement": "Form I", "setting": "[2]", "result": 37, "unit": "%"}, {"measurement": "Form II", "setting": "[2]", "result": 63, "unit": "%"}, {"measurement": "Form II", "setting": "Air, dark, 420-nm experiment FIG. 15", "result": 29, "unit": "%"}, {"measurement": "Form I", "setting": "Air, dark, 420-nm experiment FIG. 15, 300 μM [Ru(bpy)3]2+, 2 μM 10a, 4 μM 10b, 8 μM 14a", "result": 71, "unit": "%"}, {"measurement": "Form II", "setting": "Air, dark, visible experiment FIG. 16", "result": 28, "unit": "%"}, {"measurement": "Form I", "setting": "Air, dark, visible experiment FIG. 16, 500 μM [Ru(bpy)3]2+, 2 μM 10a", "result": 72, "unit": "%"}, {"measurement": "Form I", "setting": "[3]", "result": 71, "unit": "%"}, {"measurement": "Form II", "setting": "[3]", "result": 29, "unit": "%"}, {"measurement": "Form I", "setting": "[4]", "result": 57, "unit": "%"}, {"measurement": "Form II", "setting": "[4]", "result": 43, "unit": "%"}]}
